# Experimental data as given in patent US9359367B2, “Tetrahydroquinazolinone derivatives as PARP inhibitors” (Lupin Limited, priority 2012, dated 2016).
# Target: T1, PARP1 (Homo sapiens, UniProt P09874)
# T1 construct: purchased BPS Bioscience
# Assay: PARP1 Biochemical Assay (BPS Bioscience kit, chemiluminescence)
# Settings: histone-coated plate, biotinilated NAD+, 25° C. for 60 min, luminescence, read-out: PARP 1 inhibition IC50
# Summary of the method: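 Human PARP1 (25–75 ng/well) with activated DNA was incubated with compound on histone-coated wells. Biotinylated NAD+ was added and the reaction ran 60 min at 25 °C. Ribosylation was detected by streptavidin-HRP chemiluminescence, % inhibition was normalised to enzyme-free and uninhibited controls, and IC50 was fitted from % inhibition versus concentration.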
# T1 sequence (P09874 whole entry): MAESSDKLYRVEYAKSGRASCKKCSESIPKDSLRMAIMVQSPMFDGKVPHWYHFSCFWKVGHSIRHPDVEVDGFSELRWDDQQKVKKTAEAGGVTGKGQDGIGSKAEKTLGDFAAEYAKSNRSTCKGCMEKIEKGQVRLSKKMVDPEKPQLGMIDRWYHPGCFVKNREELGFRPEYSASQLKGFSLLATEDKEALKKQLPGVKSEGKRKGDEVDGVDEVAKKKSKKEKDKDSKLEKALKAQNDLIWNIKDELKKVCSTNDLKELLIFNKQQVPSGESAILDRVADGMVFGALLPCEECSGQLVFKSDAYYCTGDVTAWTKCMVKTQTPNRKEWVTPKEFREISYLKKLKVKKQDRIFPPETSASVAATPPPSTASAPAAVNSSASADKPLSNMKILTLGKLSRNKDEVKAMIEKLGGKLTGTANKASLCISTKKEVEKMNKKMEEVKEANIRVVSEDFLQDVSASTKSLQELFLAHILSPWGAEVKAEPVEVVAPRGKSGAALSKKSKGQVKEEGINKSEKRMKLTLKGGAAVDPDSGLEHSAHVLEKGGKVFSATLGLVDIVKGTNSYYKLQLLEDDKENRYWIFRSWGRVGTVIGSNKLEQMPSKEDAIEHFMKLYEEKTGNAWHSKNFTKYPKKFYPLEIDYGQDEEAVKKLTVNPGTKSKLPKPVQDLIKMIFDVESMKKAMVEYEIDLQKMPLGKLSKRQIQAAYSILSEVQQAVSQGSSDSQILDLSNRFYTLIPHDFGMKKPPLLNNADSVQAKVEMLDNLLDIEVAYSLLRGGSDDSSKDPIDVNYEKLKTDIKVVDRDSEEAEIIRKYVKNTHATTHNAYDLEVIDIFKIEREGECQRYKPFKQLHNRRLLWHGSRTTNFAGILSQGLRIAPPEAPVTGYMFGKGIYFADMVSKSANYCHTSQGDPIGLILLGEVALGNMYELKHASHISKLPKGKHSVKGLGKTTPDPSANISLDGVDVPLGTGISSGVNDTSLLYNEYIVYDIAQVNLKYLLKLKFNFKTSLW
row,Compound,IC50
1,"O=C1CN(c2ccc(F)cc2)CCN1CCCc1nc2c(c(=O)[nH]1)CC1(CC2)CC1 [Compound 33, 2′-(3-(4-(4-fluorophenyl)-2-oxopiperazin-1-yl)propyl)-7′,8′-dihydro-3′H-spiro[cyclopropane-1,6′-quinazolin]-4′(5′H)-one]",5000 to 500000 nM
2,"O=c1[nH]c([C@@H]2CC[C@H](N3CCN(c4ccc(Cl)cc4)CC3)C2)nc2c1CC1(CC2)CC1 [Compound 118, 2′-((1R,3S)-3-(4-(4-chlorophenyl)piperazin-1-yl)cyclopentyl)-7′,8′-dihydro-3′H-spiro[cyclopropane-1,6′-quinazolin]-4′(5′H)-one]",501 to 5000 nM
3,"Cc1ccc(C)c(N2CCN([C@H]3C=C(c4nc5c(c(=O)[nH]4)CC4(CC5)CC4)CC3)CC2)c1 [Compound 144, (R)-2′-(3-(4-(2,5-dimethylphenyl)piperazin-1-yl)cyclopent-1-en-1-yl)-7′,8′-dihydro-3′H-spiro[cyclopropane-1,6′-quinazolin]-4′(5′H)-one]",501 to 5000 nM
4,"Cc1ccc(N2CCN([C@H]3C=C(c4nc5c(c(=O)[nH]4)CC4(CC5)CC4)CC3)CC2)cc1C [Compound 136, (R)-2′-(3-(4-(3,4-dimethylphenyl)piperazin-1-yl)cyclopent-1-en-1-yl)-7′,8′-dihydro-3′H-spiro[cyclopropane-1,6′-quinazolin]-4′(5′H)-one]",501 to 5000 nM
5,"O=c1[nH]c(C2=C[C@H](N3CCN(c4ccc(Cl)cc4F)CC3)CC2)nc2c1CC1(CC2)CC1 [Compound 63, (R)-2′-(3-(4-(4-chloro-2-fluorophenyl)piperazin-1-yl)cyclopent-1-en-1-yl)-7′,8′-dihydro-3′H-spiro[cyclopropane-1,6′-quinazolin]-4′(5′H)-one]",1 to 500 nM
6,"O=c1[nH]c(C2=C[C@H](N3CCN(c4ccc(F)cc4F)CC3)CC2)nc2c1CC1(CC2)CC1 [Compound 61, (R)-2′-(3-(4-(2,4-difluorophenyl)piperazin-1-yl)cyclopent-1-en-1-yl)-7′,8′-dihydro-3′H-spiro[cyclopropane-1,6′-quinazolin]-4′(5′H)-one]",1 to 500 nM
7,"Cc1cc(N2CCN([C@H]3C=C(c4nc5c(c(=O)[nH]4)CC4(CC5)CC4)CC3)CC2)ncc1Cl [Compound 141, (R)-2′-(3-(4-(5-chloro-4-methylpyridin-2-yl)piperazin-1-yl)cyclopent-1-en-1-yl)-7′,8′-dihydro-3′H-spiro[cyclopropane-1,6′-quinazolin]-4′(5′H)-one]",1 to 500 nM
8,"Cc1ccc(N2CCN([C@H]3C=C(c4nc5c(c(=O)[nH]4)CC4(CC5)CC4)CC3)CC2)cc1 [Compound 73, (R)-2′-(3-(4-(p-tolyl)piperazin-1-yl)cyclopent-1-en-1-yl)-7′,8′-dihydro-3′H-spiro[cyclopropane-1,6′-quinazolin]-4′(5′H)-one]",1 to 500 nM
9,"O=c1[nH]c(C2=C[C@H](N3CCN(c4cccc(Cl)c4F)CC3)CC2)nc2c1CC1(CC2)CC1 [Compound 99, (R)-2′-(3-(4-(3-chloro-2-fluorophenyl)piperazin-1-yl)cyclopent-1-en-1-yl)-7′,8′-dihydro-3′H-spiro[cyclopropane-1,6′-quinazolin]-4′(5′H)-one]",501 to 5000 nM
10,"Cc1ccc(N2CCN([C@H]3C=C(c4nc5c(c(=O)[nH]4)CC4(CC5)CC4)CC3)CC2)c(Cl)c1 [Compound 92, (R)-2′-(3-(4-(2-chloro-4-methylphenyl)piperazin-1-yl)cyclopent-1-en-1-yl)-7′,8′-dihydro-3′H-spiro[cyclopropane-1,6′-quinazolin]-4′(5′H)-one]",1 to 500 nM
11,"Cc1cc(F)ccc1N1CCN([C@H]2C=C(c3nc4c(c(=O)[nH]3)CC3(CC4)CC3)CC2)CC1 [Compound 95, (R)-2′-(3-(4-(4-fluoro-2-methylphenyl)piperazin-1-yl)cyclopent-1-en-1-yl)-7′,8′-dihydro-3′H-spiro[cyclopropane-1,6′-quinazolin]-4′(5′H)-one]",1 to 500 nM
12,"CNC(=O)c1cnc(N2CCN([C@H]3C=C(c4nc5c(c(=O)[nH]4)CC4(CC5)CC4)CC3)CC2)s1 [Compound 104, (R)—N-methyl-2-(4-(3-(4′-oxo-4′,5′,7′,8′-tetrahydro-3′H-spiro[cyclopropane-1,6′-quinazolin]-2′-yl)cyclopent-2-en-1-yl)piperazin-1-yl)thiazole-5-carboxamide]",1 to 500 nM
13,"Cc1cc(Cl)ccc1N1CCN([C@H]2C=C(c3nc4c(c(=O)[nH]3)CC3(CC4)CC3)CC2)CC1 [Compound 96, (R)-2′-(3-(4-(4-chloro-2-methylphenyl)piperazin-1-yl)cyclopent-1-en-1-yl)-7′,8′-dihydro-3′H-spiro[cyclopropane-1,6′-quinazolin]-4′(5′H)-one]",1 to 500 nM
14,"O=c1[nH]c(C2=CC(N3CCN(c4ccc(Br)cc4)CC3)CC2)nc2c1CC1(CC2)CC1 (stereo not shown) [Compound 50, 2′-(3-(4-(4-bromophenyl)piperazin-1-yl)cyclopent-1-en-1-yl)-7′,8′-dihydro-3′H-spiro[cyclopropane-1,6′-quinazolin]-4′(5′H)-one]",1 to 500 nM
15,"CNC(=O)c1ccc(N2CCN([C@H]3C=C(c4nc5c(c(=O)[nH]4)CC4(CC5)CC4)CC3)CC2)c(Cl)c1 [Compound 134, (R)-3-chloro-N-methyl-4-(4-(3-(4′-oxo-4′,5′,7′,8′-tetrahydro-3′H-spiro[cyclopropane-1,6′-quinazolin]-2′-yl)cyclopent-2-en-1-yl)piperazin-1-yl)benzamide]",1 to 500 nM
16,"O=c1[nH]c(C2=C[C@H](N3CCN(c4ccc(F)cc4)CC3)CC2)nc2c1CCCC21CC1 [Compound 48, (R)-2′-(3-(4-(4-fluorophenyl)piperazin-1-yl)cyclopent-1-en-1-yl)-6′,7′-dihydro-3′H-spiro[cyclopropane-1,8′-quinazolin]-4′(5′H)-one]",1 to 500 nM
17,"O=c1[nH]c(CCCN2CC=C(c3ccc(F)cc3)CC2)nc2c1CC1(CC2)CC1 [Compound 9, 2′-(3-(4-(4-fluorophenyl)-5,6-dihydropyridin-1(2H)-yl)propyl)-7′,8′-dihydro-3′H-spiro[cyclopropane-1,6′-quinazolin]-4′(5′H)-one]",1 to 500 nM
18,"Cc1ccccc1N1CCN([C@H]2C=C(c3nc4c(c(=O)[nH]3)CC3(CC4)CC3)CC2)CC1 [Compound 90, (R)-2′-(3-(4-(o-tolyl)piperazin-1-yl)cyclopent-1-en-1-yl)-7′,8′-dihydro-3′H-spiro[cyclopropane-1,6′-quinazolin]-4′(5′H)-one]",1 to 500 nM
19,"O=c1[nH]c(CCCN2CCN(c3ccccc3F)CC2)nc2c1CC1(CC2)CC1 [Compound 28, 2′-(3-(4-(2-fluorophenyl)piperazin-1-yl)propyl)-7′,8′-dihydro-3′H-spiro[cyclopropane-1,6′-quinazolin]-4′(5′H)-one]",1 to 500 nM
20,"O=c1[nH]c(C2=C[C@@H](N3CCN(c4ccc(F)cc4)CC3)CC2)nc2c1CC1(CC2)CC1 [Compound 43, (S)-2′-(3-(4-(4-fluorophenyl)piperazin-1-yl)cyclopent-1-en-1-yl)-7′,8′-dihydro-3′H-spiro[cyclopropane-1,6′-quinazolin]-4′(5′H)-one]",5000 to 500000 nM
21,"CNC(=O)c1ccc(N2CCN([C@H]3C=C(c4nc5c(c(=O)[nH]4)CC4(CC5)CC4)CC3)CC2)cc1 [Compound 54, (R)—N-methyl-4-(4-(3-(4′-oxo-4′,5′,7′,8′-tetrahydro-3′H-spiro[cyclopropane-1,6′-quinazolin]-2′-yl)cyclopent-2-en-1-yl)piperazin-1-yl)benzamide]",1 to 500 nM
22,"O=c1[nH]c(C2=C[C@H](N3CCN(c4cccc(Cl)c4)CC3)CC2)nc2c1CC1(CC2)CC1 [Compound 60, (R)-2′-(3-(4-(3-chlorophenyl)piperazin-1-yl)cyclopent-1-en-1-yl)-7′,8′-dihydro-3′H-spiro[cyclopropane-1,6′-quinazolin]-4′(5′H)-one]",501 to 5000 nM
23,"O=c1[nH]c(C2=C[C@H](N3CCN(c4ccc(Cl)c(Cl)c4)CC3)CC2)nc2c1CC1(CC2)CC1 [Compound 59, (R)-2′-(3-(4-(3,4-dichlorophenyl)piperazin-1-yl)cyclopent-1-en-1-yl)-7′,8′-dihydro-3′H-spiro[cyclopropane-1,6′-quinazolin]-4′(5′H)-one]",5000 to 500000 nM
24,"O=c1[nH]c([C@@H]2CC[C@@H](N3CCN(c4ccc(Cl)cc4)CC3)C2)nc2c1CC1(CC2)CC1 [Compound 121, 2′-((1R,3R)-3-(4-(4-chlorophenyl)piperazin-1-yl)cyclopentyl)-7′,8′-dihydro-3′H-spiro[cyclopropane-1,6′-quinazolin]-4′(5′H)-one]",5000 to 500000 nM
25,"O=c1[nH]c(C2=C[C@H](N3CCN(c4cncc(F)c4)CC3)CC2)nc2c1CC1(CC2)CC1 [Compound 142, (R)-2′-(3-(4-(5-fluoropyridin-3-yl)piperazin-1-yl)cyclopent-1-en-1-yl)-7′,8′-dihydro-3′H-spiro[cyclopropane-1,6′-quinazolin]-4′(5′H)-one]",1 to 500 nM
26,"CN(C)C(=O)c1ccc(N2CCN([C@H]3C=C(c4nc5c(c(=O)[nH]4)CC4(CC5)CC4)CC3)CC2)cc1 [Compound 69, (R)—N,N-dimethyl-4-(4-(3-(4′-oxo-4′,5′,7′,8′-tetrahydro-3′H-spiro[cyclopropane-1,6′-quinazolin]-2′-yl)cyclopent-2-en-1-yl)piperazin-1-yl)benzamide]",5000 to 500000 nM
27,"Cc1cc(N2CCN([C@H]3C=C(c4nc5c(c(=O)[nH]4)CC4(CC5)CC4)CC3)CC2)ncc1F [Compound 137, (R)-2′-(3-(4-(5-fluoro-4-methylpyridin-2-yl)piperazin-1-yl)cyclopent-1-en-1-yl)-7′,8′-dihydro-3′H-spiro[cyclopropane-1,6′-quinazolin]-4′(5′H)-one]",1 to 500 nM
28,"Cc1cccc(N2CCN([C@H]3C=C(c4nc5c(c(=O)[nH]4)CC4(CC5)CC4)CC3)CC2)n1 [Compound 145, (R)-2′-(3-(4-(6-methylpyridin-2-yl)piperazin-1-yl)cyclopent-1-en-1-yl)-7′,8′-dihydro-3′H-spiro[cyclopropane-1,6′-quinazolin]-4′(5′H)-one]",1 to 500 nM
